Assay results published in patent US8419943B2, “Method of removing protein-bound deleterious substances during extracorporeal renal replacement treatment” (Fresenius Medical Care Holdings, Inc., priority 2008, dated 2013).

Experiments:
[1] = normal adults; cited from earlier work
albumin = albumin (Homo sapiens, UniProt P02768); experiment: Competitive displacement of indoxyl sulfate by bilirubin in model uremic plasma; format: binding; conditions: uremic plasma (BUN about 55 mg/dL, albumin 3.82 g/dL) with 2 mMolar Bil-DT, 12 hours at 37° C.; control without Bil-DT 0.65 μg/ml
Sequence of albumin (P02768 25-609): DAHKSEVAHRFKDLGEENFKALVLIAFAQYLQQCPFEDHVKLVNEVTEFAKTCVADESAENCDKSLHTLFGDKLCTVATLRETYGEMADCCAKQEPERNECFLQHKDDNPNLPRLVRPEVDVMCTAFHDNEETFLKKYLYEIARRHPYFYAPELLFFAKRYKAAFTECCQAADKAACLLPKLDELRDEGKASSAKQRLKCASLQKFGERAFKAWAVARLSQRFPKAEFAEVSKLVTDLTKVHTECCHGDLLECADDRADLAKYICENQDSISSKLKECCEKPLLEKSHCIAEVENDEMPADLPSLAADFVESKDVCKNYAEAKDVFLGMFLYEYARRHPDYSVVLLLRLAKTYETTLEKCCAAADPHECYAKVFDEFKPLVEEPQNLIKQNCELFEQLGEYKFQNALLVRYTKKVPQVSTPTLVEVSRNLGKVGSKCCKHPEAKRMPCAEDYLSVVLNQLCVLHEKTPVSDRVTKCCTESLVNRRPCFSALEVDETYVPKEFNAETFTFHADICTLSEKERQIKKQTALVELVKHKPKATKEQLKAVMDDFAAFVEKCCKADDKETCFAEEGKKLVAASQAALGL
Protocol: Two samples of uremic plasma (blood urea nitrogen (BUN) of about 55 mg/dL, albumin concentration of 3.82 g/dL) including indoxyl sulfate were incubated for 12 hours at 37° C. One sample also included 2 mMolar bilirubin ditauride (Bil-DT).

Row | Molecule | non-toxic level of serum bilirubin concentration [1] | free indoxyl sulfate concentration (albumin) [µg/mL]
1 | C=CC1=C(C)/C(=C/c2[nH]c(Cc3[nH]c(/C=C4\NC(=O)C(C)=C4C=C)c(C)c3CCC(=O)O)c(CCC(=O)O)c2C)NC1=O [Bilirubin, bilirubin] | about 10 mg/dL | 
2 | bilirubin ditauride [Bil-DT] |  | 0.93
